Consider 3 molecules from patent publication US9645154B2, “Method for detecting cancer cell” (ARKRAY, Inc., priority 2010, dated 2017).

The test system of assay [1] is Blood cells. The assay is described as follows: Labeled amino acid incorporation, fluorescence microscopy image analysis (false-positive/negative rate). It counts as cell-based, human. Particulars: hemolyzed, 30 min, 37° C.; for Negative rate (Blood cells) / Positive rate (Blood cells): 1 mM. The text has this:
(§1) Blood was collected from a human subject using a vacuum blood collection tube (with EDTA•2K). Blood cells were separated using HetaSep (STEMCELL Technologies) in accordance with manufacturer's instructions.
When performing the hemolyzing treatment, the blood cell fraction collected as described above was hemolyzed using ammonium chloride (STEMCELL Technologies) at room temperature according to the manufacture's manuals.
The number of the cells was counted for each cell line using a hemacytometer in accordance with the conventional method, and then 10^5 to 10^6 cells per sample (cell suspension) was aliquoted. The sample was centrifuged to remove the supernatant. Subsequently, H-Ala(2-Bacd)-OH (Watanabe Chemical Industries, Ltd.) was added thereto (at the final concentration given in Table 5 or 6), and the cells were suspended well. After the reaction, Dulbecco's PBS (−) was added to the mixture, and the resultant was centrifuged to remove the supernatant. The cells were resuspended with Dulbecco's PBS and centrifuged, and the supernatant was removed again. The steps of resuspending cells with Dulbecco's PBS (−), centrifuging and removing the supernatant were then repeated 2 to 3 times, thereby washing the cells thoroughly. The cells were resuspended with Dulbecco's PBS (−), the concentration thereof was adjusted, and then added dropwise to a 384-well plate. The plate was centrifuged to spin down the cells. The image was captured with a fluorescence microscope (Nikon Corp.) using B-2A filter set (Nikon Corp.). The B-2A set covers the same wavelengths as those in Example 2. The acquired images were analyzed using an image analysis software NIS-ELEMENTS (trade name, Nikon Corp.) to evaluate the fluorescence intensity of the cell.
With regard to the labeling substance, H-Lys(DMACA)-OH (Watanabe Chemical Industries, Ltd.) or H-Glu(EDANS)—OH (Watanabe Chemical Industries, Ltd.) was used instead of using H-Ala(2-Bacd)-OH in the staining of Example 3.
(§2) Further, the fluorescence intensity of the cells was evaluated in a manner similar to Example 2, except the fluorescence filter covering the wavelengths of EX (excitation wavelength) of 365/±10, DM of 400 or longer and BA (fluorescence wavelength) of 470±20 was used based on the fluorescent property of the fluorescent substances.

The test system of assay [2] is human gastric cancer cell line SNU-1. The assay can be described thus: Labeled amino acid incorporation, fluorescence microscopy image analysis (positive rate). It counts as cell-based. Particulars: 1 mM; hemolyzed, 30 min, 37° C.
Text: In accordance with the conventional method, cultured human prostate cancer cell line PC3 (DS Pharma Biomedical Co., Ltd.) was harvested with trypsin (Invitrogen). The human gastric cancer cell line SNU-1 (ATCC), which is a suspension cell line, was directly harvested without any trypsin treatment. The cell suspension of the harvested cancer cells was centrifuged, and the supernatant was removed. The cells were resuspended with Dulbecco's PBS (−) (Nissui Pharmaceutical Co., Ltd.) and centrifuged, and the supernatant was removed again.
The number of the cells was counted for each cell line using a hemacytometer in accordance with the conventional method, and then 10^5 to 10^6 cells per sample (cell suspension) was aliquoted. The sample was centrifuged to remove the supernatant. […] The image was captured with a fluorescence microscope (Nikon Corp.) using B-2A filter set (Nikon Corp.). […] The acquired images were analyzed using an image analysis software NIS-ELEMENTS (trade name, Nikon Corp.) to evaluate the fluorescence intensity of the cell. […]
as §2

Assay [3] deals with Blood cells. The assay can be described thus: Labeled sugar incorporation, fluorescence microscopy image analysis (false-positive/negative rate). It is filed as cell-based, human. The note with it: 10 mM, 5 min, 23° C.
Text: as §1
(§3) When performing the hemolyzing treatment, the blood cell fraction collected as described above was hemolyzed using ammonium chloride (STEMCELL Technologies) according to the manufacture's manuals.
(§4) The number of the cells was counted for each cell line using a hemacytometer in accordance with the conventional method, and then 10^5 to 10^6 cells per sample (cell suspension) was aliquoted. Each of the sample was centrifuged to remove the supernatant. Subsequently, 2-NBDG (Wako Pure Chemical Industries, Ltd.; at the final concentration given in Table 3 or 4) dissolved in Dulbecco's PBS (−) was added thereto, and the cells were suspended well. After the reaction, Dulbecco's PBS (−) was added to the mixture, and the resultant was centrifuged to remove the supernatant. The cells were resuspended with Dulbecco's PBS (−) and centrifuged, and the supernatant was removed again. The steps of resuspending cells with Dulbecco's PBS (−), centrifuging and removing the supernatant were then repeated 2 to 3 times, thereby washing the cells thoroughly. The cells were resuspended with Dulbecco's PBS (−), the concentration thereof was adjusted, and then added dropwise to a 384-well plate. The plate was centrifuged to spin down the cells. The image was captured with a fluorescence microscope (Nikon Corp.) using B-2A filter combination (Nikon Corp.). The B-2A set covers the following wavelengths. EX (excitation wavelength): 475±15 nm, DM: 505 nm or longer, BA (fluorescence wavelength) 520 nm or longer.
(§5) The acquired images were analyzed using an image analysis software NIS-ELEMENTS (trade name, Nikon Corp.) to evaluate the fluorescence intensity of the cell. […]

Assay [4] relates to human fibrosarcoma cell line HT1080. The assay is described as follows: Labeled sugar incorporation, fluorescence microscopy image analysis (positive rate). It counts as cell-based. Particulars: 10 mM, 5 min, 23° C.
Text: In accordance with the conventional method, cultured human fibrosarcoma cell line HT1080 (DS Pharma Biomedical Co., Ltd.) was harvested with trypsin (Invitrogen). The human gastric cancer cell line SNU-1 (ATCC), which is a suspension cell line, was directly harvested without any trypsin treatment. The cell suspension of the harvested cancer cells was centrifuged, and the supernatant was removed. The cells were resuspended with Dulbecco's PBS (−) (Nissui Pharmaceutical Co., Ltd.) and centrifuged, and the supernatant was removed again.
as §3, §4, §5
In a manner similar to Example 2, each of human breast adenocarcinoma cells (cell line name: MCF-7; DS Pharma Biomedical Co., Ltd.), human colon adenocarcinoma cells (cell line name: SW620; DS Pharma Biomedical Co., Ltd.), human prostate cancer cells (cell line name: PC3; DS Pharma Biomedical Co., Ltd.), human alveolar epithelial cancer cells (cell line name: NCI-H358; DS Pharma Biomedical Co., Ltd.), human gastric cancer cells (cell line name: SNU-1; ATCC) and human fibrosarcoma cells (cell line name: HT1080; DS Pharma Biomedical Co., Ltd.) was detected with the labeled sugar (2-NBDG).

As to `CN(C)c1ccc2c(CC(=O)NCCCC[C@H](N)C(=O)O)cc(=O)oc2c1` [H-Lys(DMACA)-OH], in assay [1], the “Negative rate (Blood cells)” value is 82.3% and the “Positive rate (Blood cells)” value is given as 17.7%. Also, the “Positive rate (Gastric cancer cell line)” value in assay [2] is on record as 86.1%.
In the case of `N[C@@H](CCC(=O)NCCNc1cccc2c(S(=O)(=O)O)cccc12)C(=O)O` [H-Glu(EDANS)-OH], in assay [1], the “Negative rate (Blood cells)” value is 99.4% and the “Positive rate (Blood cells)” value stood at 0.6%. Also, the “selectivity for a cancer cell in view of a negative rate” value in assay [1] (gastric cancer cell line versus blood cells, Table 15) is listed as “high selectivity”. For the same molecule, the “Positive rate (Gastric cancer cell line)” value in assay [2] came to 56.9%.
For the molecule `O=[N+]([O-])c1ccc(NCC2OC(O)C(O)C(O)[C@@H]2O)c2nonc12` (stereo partly drawn) [6-NBDG, 6-[N-(7-nitrobenz-2-oxa-1,3-diazol-4-yl)amino]-6-deoxy-D-glucose], the “Negative rate (Blood cells (fresh blood))” value in assay [3] (hemolyzed) and in assay [3] (not hemolyzed) was 99.1% throughout. Further, the “Positive rate (Blood cells (fresh blood))” value in assay [3] (hemolyzed) and in assay [3] (not hemolyzed) was 0.9% throughout. In addition, the “Positive rate (Fibrosarcoma cell line)” value in assay [4] (hemolyzed) stood at 78.7%; in assay [4] (not hemolyzed) it was 71.1%.
